Laboratory results reported in US9512126B2, “Substituted imidazopyridazines” (Bayer Intellectual Property GmbH, priority 2012, dated 2016).

What was measured:
human kinase Mps-1 = human kinase Mps-1 (Homo sapiens (Human), UniProt P33981); test: Mps-1 kinase assay (TR-FRET); format: biochemical; details: N-terminally GST-tagged human full length recombinant Mps-1, 10 μM ATP
Procedure: The human kinase Mps-1 phosphorylates a biotinylated substrate peptide. Detection of the phosphorylated product is achieved by time-resolved fluorescence resonance energy transfer (TR-FRET) from Europium-labelled anti-phospho-Serine/Threonine antibody as donor to streptavidin labelled with cross-linked allophycocyanin (SA-XLent) as acceptor. Compounds are tested for their inhibition of the kinase activity.
N-terminally GST-tagged human full length recombinant Mps-1 kinase (purchased from Invitrogen, Karslruhe, Germany, cat. no PV4071) was used. As substrate for the kinase reaction a biotinylated peptide of the amino-acid sequence […] (C-terminus in amide form, purchased from Biosynthan GmbH, Berlin) was used.
The concentration of Mps-1 in the assay was adjusted to the activity of the enzyme lot and was chosen appropriate to have the assay in the linear range, typical enzyme concentrations were in the range of about 1 nM (final conc. in the 5 μl assay volume).
The resulting mixture was incubated 1 h at 22° C. to allow the binding of the phosphorylated peptide to the anti-phospho(Ser/Thr)-Europium-antibody. Subsequently the amount of phosphorylated substrate was evaluated by measurement of the resonance energy transfer from the Europium-labelled anti-phospho(Ser/Thr) antibody to the Streptavidin-XLent.

[1] = In vitro metabolic stability in rat hepatocytes (including calculation of hepatic in vivo blood clearance); format: in vitro ADME; details: Han Wistar, hepatocytes (freshly isolated, suspension), read-out: CL (hepatic in vivo blood clearance) (converted)
Procedure: Investigation of In Vitro Metabolic Stability in Rat Hepatocytes (Including Calculation of Hepatic In Vivo Blood Clearance (CL))
Hepatocytes from Han Wistar rats were isolated via a 2-step perfusion method. After perfusion, the liver was carefully removed from the rat: the liver capsule was opened and the hepatocytes were gently shaken out into a Petri dish with ice-cold WME. The resulting cell suspension was filtered through sterile gaze in 50 ml falcon tubes and centrifuged at 50×g for 3 min at room temperature. The cell pellet was resuspended in 30 ml WME and centrifuged through a Percoll® gradient for 2 times at 100×g. The hepatocytes were washed again with Williams' medium E (WME) and resuspended in medium containing 5% FCS. Cell viability was determined by trypan blue exclusion.
For the metabolic stability assay liver cells were distributed in WME containing 5% FCS to glass vials at a density of 1.0×10^6 vital cells/ml. The test compound was added to a final concentration of 1 μM. During incubation, the hepatocyte suspensions were continuously shaken and aliquots were taken at 2, 8, 16, 30, 45 and 90 min, to which equal volumes of cold methanol were immediately added.
Samples were frozen at −20° C. over night, after subsequently centrifuged for 15 minutes at 3000 rpm and the supernatant was analyzed with an Agilent 1200 HPLC-system with LCMS/MS detection.
The half-life of a test compound was determined from the concentration-time plot. From the half-life the intrinsic clearances were calculated. Together with the additional parameters liver blood flow, amount of liver cells in vivo and in vitro. The hepatic in vivo blood clearance (CL) and the maximal oral bioavailability (Fmax) was calculated. The following parameter values were used: Liver blood flow—4.2 L/h/kg rat; specific liver weight—32 g/kg rat body weight; liver cells in vivo—1.1×10^8 cells/g liver, liver cells in vitro—0.5×10^6 ml.

human kinase Mps-1, sequence (P33981 whole entry): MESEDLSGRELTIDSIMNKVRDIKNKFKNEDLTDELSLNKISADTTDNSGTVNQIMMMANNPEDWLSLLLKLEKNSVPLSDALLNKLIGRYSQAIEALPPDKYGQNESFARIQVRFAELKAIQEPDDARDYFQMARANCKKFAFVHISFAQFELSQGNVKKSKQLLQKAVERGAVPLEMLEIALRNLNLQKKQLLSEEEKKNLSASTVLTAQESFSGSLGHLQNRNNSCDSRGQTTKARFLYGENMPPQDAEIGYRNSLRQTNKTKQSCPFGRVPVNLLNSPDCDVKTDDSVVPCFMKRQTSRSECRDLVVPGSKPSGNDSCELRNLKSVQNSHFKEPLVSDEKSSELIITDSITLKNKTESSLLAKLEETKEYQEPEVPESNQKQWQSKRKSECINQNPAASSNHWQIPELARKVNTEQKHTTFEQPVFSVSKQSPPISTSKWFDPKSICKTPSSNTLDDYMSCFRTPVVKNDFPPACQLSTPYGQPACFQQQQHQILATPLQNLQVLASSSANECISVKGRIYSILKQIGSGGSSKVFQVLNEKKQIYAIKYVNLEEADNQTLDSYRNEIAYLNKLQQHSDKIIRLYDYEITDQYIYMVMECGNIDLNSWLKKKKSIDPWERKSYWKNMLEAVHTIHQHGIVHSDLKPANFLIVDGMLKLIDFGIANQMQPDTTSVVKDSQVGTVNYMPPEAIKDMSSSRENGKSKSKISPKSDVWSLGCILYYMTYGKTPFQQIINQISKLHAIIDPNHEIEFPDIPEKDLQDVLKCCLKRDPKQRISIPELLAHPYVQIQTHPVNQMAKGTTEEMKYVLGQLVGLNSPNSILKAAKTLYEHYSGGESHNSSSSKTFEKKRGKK

SMILES	IC50 (human kinase Mps-1) [nM]	CLhep predicted at 1 μM [1] [mL/min/kg]
Cc1cc(-c2cnc3c(NCCC(F)(F)F)cc(C(F)(F)c4cccc(F)c4)nn23)ccc1C(=O)NC1CC1 [Example 6, N-Cyclopropyl-4-{6-[difluoro(3-fluorophenyl)methyl]-8-[(3,3,3-trifluoropropyl)amino]imidazo[1,2-b]pyridazin-3-yl}-2-methylbenzamide]	0.7	21.7
Cc1cc(-c2cnc3c(NCCC(F)(F)F)cc(C4(c5cccc(F)c5)CC4)nn23)ccc1C(=O)NC1CC1 [Example 25, N-cyclopropyl-4-{6-[1-(3-fluorophenyl)cyclopropyl]-8-[(3,3,3-trifluoropropyl)amino]imidazo[1,2-b]pyridazin-3-yl}-2-methylbenzamide]	–	33.3
